Where a name gives a salt, the structure may show the parent alone.
Tests used:
hS1P1 receptors = molecular target: T1, hS1P1 receptors (Homo sapiens, UniProt P21453); assay: Intracellular Ca2+ mobilization in CHO cells expressing human S1P receptors (hS1P1); format: cell-based; conditions: read-out: S1P1 (EC50 class, intracellular Ca2+ mobilization)
T1 construct: expressed in transfected cells; host or cells: CHO cells (Geneticin-selected)
Method: (§1) Test for the Ability of Test Compounds to Induce Intracellular Ca^2+ Mobilization in Cells Expressing Human S1P (Sphingosine-1-Phosphate) Receptors
(§2) CHO cells expressing human S1P receptors (i.e., CHO cells expressing hS1P1 receptors or hS1P3 receptors) were subcultured on Ham's F-12 medium supplemented with 10% fetal bovine serum and 200 μg/mL Geneticin. The cells were seeded on a 96-well black clear bottom plate (COSTAR) at 4×10^4 cells/well and were cultured overnight at 37° C. in 5% CO2. A fluorescent reagent that emits fluorescence upon binding to Ca^2+ (Calcium Screening Kit (DOJINDO)) was added to the culture and the cells were further cultured for 60 min at 37° C. in 5% CO2. After culturing, microplate spectrofluorometer (FLEX station, MOLECULAR DEVICE) was used to measure the fluorescence intensity at an excitation wavelength of 485 nm and a detection wavelength of 525 nm. S1P or a test compound adjusted with cultural medium to a concentration 10 times higher than the final concentration (final DMSO concentration=0.1%). Each test compound solution was added 18 sec. after beginning of the measurement of fluorescence. The fluorescence intensity was measured every 1.5 sec for 100 sec. For each test compound, the difference between the maximum fluorescence intensity and the minimum fluorescence intensity (i.e., increase in fluorescence) was determined from the measurements. The rate of fluorescence increase (%) for each test compound was calculated by the difference (100%) of the fluorescence increase between solvent only and S1P (10^−6M). Using this value as an index of the ability of the test compound to induce intracellular Ca^2+ mobilization, EC50 was determined by PRISM software (GraphPad).

hS1P3 receptors = molecular target: T2, hS1P3 receptors (Homo sapiens, UniProt Q99500); assay: Intracellular Ca2+ mobilization in CHO cells expressing human S1P receptors (hS1P3); format: cell-based; conditions: read-out: S1P3 (EC50 class, intracellular Ca2+ mobilization)
T2 construct: expressed in transfected cells; host or cells: CHO cells (Geneticin-selected)
T2 sequence (Q99500 whole entry): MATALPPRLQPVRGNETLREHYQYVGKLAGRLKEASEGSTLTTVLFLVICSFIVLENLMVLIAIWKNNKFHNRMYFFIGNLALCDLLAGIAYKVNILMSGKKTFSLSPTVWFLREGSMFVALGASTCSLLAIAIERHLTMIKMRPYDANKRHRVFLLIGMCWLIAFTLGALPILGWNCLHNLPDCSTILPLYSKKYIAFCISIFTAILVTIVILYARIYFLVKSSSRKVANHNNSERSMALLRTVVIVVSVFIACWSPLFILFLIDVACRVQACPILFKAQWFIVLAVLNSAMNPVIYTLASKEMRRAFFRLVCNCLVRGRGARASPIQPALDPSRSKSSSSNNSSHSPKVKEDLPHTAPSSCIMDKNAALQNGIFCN
Method: as §1, §2

[1] = tested on: host vs. graft rejection in mice; assay: Inhibitory effects on host vs. graft rejection in mice (right popliteal lymph node weight); format: in vivo, C3H/HeN mice; conditions: Mus musculus, Dose 0.03 mg/kg
Method: Inhibitory Effects of Test Compounds on Host Vs. Graft Rejection in Mice
This experiment was performed according to the method described in Transplantation 55(3) (1993): 578-591. Spleens were collected from 6 to 16 week old male BALB/c mice (CHARLES RIVER JAPAN). The spleens were placed in an RPMI-1640 medium (SIGMA) and were gently pressed between two slide glasses and then passed through a cell strainer (70 μm, Falcon) to form a cell suspension. The suspension was then centrifuged and the supernatant was discarded. An ammonium chloride-Tris isotonic buffer was added to the suspension to lyse erythrocytes. The cells were then centrifuged three times in RPMI-1640 medium for washing and were resuspended in an RPMI-1640 medium. To this suspension, mitomycin C (KYOWA HAKKO KOGYO Co., Ltd.) was added to a final concentration of 25 μg/mL and the suspension was incubated for 30 minutes at 37° C. in a 5% CO2 atmosphere. The cells were centrifuged three times in RPMI-1640 medium for washing and were resuspended in an RPMI-1640 medium so that the medium would contain 2.5×10^8 cells/mL. This suspension served as a “stimulation cell suspension.” Using a 27 G needle with a microsyringe (Hamilton), 20 μL (5×10^6 cells/mouse) of the stimulation cell suspension was subcutaneously injected into the right hind footpad of 6 to 8 week old male C3H/HeN mice (CLEA JAPAN). Normal control group was injected with RPMI-1640 medium alone. 4 days after the injection, right popliteal lymph nodes were collected and were weighed on a Mettler AT201 electronic scale (METTLER TOLEDO Co., Ltd.). Each animal was intraperitoneally administered a test compound once a day for four consecutive days starting on the day of the injection of the stimulation cells (i.e., total of 4 times). Control groups were administered the same vehicle as that used in the preparation of each test compound. The inhibition (%) was determined using the following formula {[Weight of right popliteal lymph nodes of positive control group]−[Weight of right popliteal lymph nodes of test compound group]×100}/{[Weight of right popliteal lymph nodes of positive control group]−[Weight of right popliteal lymph nodes of normal control group]} Formula 1

T1 sequence (P21453 whole entry): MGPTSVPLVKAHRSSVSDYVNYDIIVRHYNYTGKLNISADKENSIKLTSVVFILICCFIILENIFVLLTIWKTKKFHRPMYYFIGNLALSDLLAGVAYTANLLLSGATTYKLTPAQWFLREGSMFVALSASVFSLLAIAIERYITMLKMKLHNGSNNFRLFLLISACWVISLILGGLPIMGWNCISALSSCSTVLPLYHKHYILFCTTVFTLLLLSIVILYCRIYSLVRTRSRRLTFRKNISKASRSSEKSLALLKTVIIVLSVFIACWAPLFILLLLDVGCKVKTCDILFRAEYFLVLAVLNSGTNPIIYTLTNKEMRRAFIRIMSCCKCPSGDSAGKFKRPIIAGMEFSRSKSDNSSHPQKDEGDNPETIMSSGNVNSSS

Compound	EC50 (hS1P1 receptors) [µM]	EC50 (hS1P3 receptors) [µM]	melting point [°C]	inhibition in vivo at 0.03 mg/kg [1] [%]
NC(CO)(CCCc1ccc(Oc2cccc(C(F)(F)F)c2)cc1Cl)COP(=O)(O)O (stereo not shown) [Example 300]	0.01 to 0.1	≥ 1		
NC(/C=C/P(=O)(O)O)(CO)CCCCc1ccc(Sc2cccc(OCc3ccccc3)c2)cc1Cl (stereo not shown) [Example 290, 3-amino-[4-(3-benzyloxyphenylthio)-2-chlorophenyl]-3-hydroxymethyl-1-heptenylphosphonic acid]	< 0.01	0.01 to 0.1	258 to 260	
COP(=O)(OC)OCC(C)(CCc1ccc(Sc2cccc(OCc3ccccc3)c2)cc1Cl)NC(=O)OC(C)(C)C (single isomer, unassigned; (+)) [Example 247, (+)-4-[4-(3-benzyloxyphenylthio)-2-chlorophenyl]-2-t-butoxycarbonylamino-1-dimethoxyphosphoryloxy-2-methylbutane]				63
CC(N)(CCCc1ccc(Sc2cccc(OCc3ccccc3)c2)cc1Cl)CCP(=O)(O)O (stereo not shown) [Example 260, 3-amino-6-[4-(3-benzyloxyphenylthio)-2-chlorophenyl]-3-methylhexylphosphonic acid]	0.01 to 0.1	0.1 to 1	195 to 197	
NC(CO)(CCCc1ccc(Sc2cccc(C(F)(F)F)c2)cc1Cl)COP(=O)(O)O (stereo not shown) [Example 299, 2-amino-5-[2-chloro-4-(3-trifluoromethylphenylthio)phenyl]-2-hydroxymethylpentylphosphonate monoester]	0.01 to 0.1	≥ 1		
CCCC(N)(/C=C/P(=O)(O)O)CCCc1ccc(Sc2cccc(OCc3ccccc3)c2)cc1Cl (stereo not shown) [Example 283, 3-amino-6-[4-(3-benzyloxyphenylthio)-2-chlorophenyl]-3-propyl-1-hexenylphosphonic acid]	0.01 to 0.1	0.01 to 0.1		
CCCC(N)(CCCc1ccc(Sc2cccc(OCc3ccccc3)c2)cc1Cl)CCP(=O)(O)O (stereo not shown) [Example 284, 3-amino-6-[4-(3-benzyloxyphenylthio)-2-chlorophenyl]-3-propylhexylphosphonic acid]	0.01 to 0.1	0.1 to 1		
NC(CO)(CCCc1ccc(Sc2cccc(OCc3ccccc3)c2)cc1Cl)C(O)C(F)(F)P(=O)(O)O (stereo not shown) [Example 293, 3-amino-6-[4-(3-benzyloxyphenylthio)-2-chlorophenyl]-1,1-difluoro-2-hydroxy-3-hydroxymethylhexylphosphonic acid]	0.1 to 1	0.1 to 1		
NC(CO)(CCc1ccc(Sc2ccc(OCc3ccccc3)cc2)cc1Cl)CCP(=O)(O)O (stereo not shown) [Example 308, 3-amino-5-[4-(4-benzyloxyphenylthio)-2-chlorophenyl]-3-hydroxymethylpentylphosphonic acid]	0.1 to 1	≥ 1		
NC(CO)(CCCc1ccc(Sc2cccc(OCc3ccccc3)c2)cc1Cl)CCP(=O)(O)O (stereo not shown) [Example 265, 3-amino-6-[4-(3-benzyloxyphenylthio)-2-chlorophenyl]-3-hydroxymethylhexylphosphonic acid]	< 0.01	0.1 to 1	193 to 196	
NC(CO)(CCCCc1ccc(Sc2cccc(OCc3ccccc3)c2)cc1Cl)CCP(=O)(O)O (stereo not shown) [Example 289, 3-amino-[4-(3-benzyloxyphenylthio)-2-chlorophenyl]-3-hydroxymethylheptylphosphonic acid]			180 to 183	
CCCC(N)(/C=C/P(=O)(OC)OC)CCCc1ccc(Sc2cccc(OCc3ccccc3)c2)cc1Cl (stereo not shown) [Example 280, Dimethyl 3-amino-6-[4-(3-benzyloxyphenylthio)-2-chlorophenyl]-3-propyl-1-hexenylphosphonate hydrochloride]	0.1 to 1	0.1 to 1		
NC(CO)(CCCc1ccc(Oc2cccc(C(F)(F)F)c2)cc1Cl)CCP(=O)(O)O (stereo not shown) [Example 296, 3-amino-6-[2-chloro-4-(3-trifluoromethylphenoxy)phenyl]-3-hydroxymethylhexylphosphonic acid]	0.01 to 0.1	≥ 1		

The next lines start with results.

EC50 (hS1P1 receptors) [µM]	EC50 (hS1P3 receptors) [µM]	melting point [°C]	Compound	inhibition in vivo at 0.03 mg/kg [1] [%]
< 0.01	0.1 to 1	243 to 246	NC(/C=C/P(=O)(O)O)(CO)CCCc1ccc(Sc2cccc(OCc3ccccc3)c2)cc1Cl (stereo not shown) [Example 263, 3-amino-[4-(3-benzyloxyphenylthio)-2-chlorophenyl]-3-hydroxymethyl-1-hexenylphosphonic acid]	
< 0.01	≥ 1	245 to 248	NC(/C=C/P(=O)(O)O)(CO)CCc1ccc(Sc2cccc(OCc3ccccc3)c2)cc1Cl (stereo not shown) [Example 267, 3-amino-5-[4-(3-benzyloxyphenylthio)-2-chlorophenyl]-3-hydroxymethyl-1-pentenylphosphonic acid]	
0.01 to 0.1	≥ 1	205 to 208	NC(CO)(CCc1ccc(Sc2cccc(OCc3ccccc3)c2)cc1Cl)CCP(=O)(O)O (stereo not shown) [Example 269, 3-amino-5-[4-(3-benzyloxyphenylthio)-2-chlorophenyl]-3-hydroxymethylpentylphosphonic acid]	
0.01 to 0.1	< 0.01		CC(N)(CCc1ccc(Sc2cccc(OCc3ccccc3)c2)cc1Cl)COP(=O)(O)O (single isomer, unassigned; (+)) [Example 249, (+)-2-amino-4-[4-(3-benzyloxyphenylthio)-2-chlorophenyl]-2-methylbutylphosphonate monoester]	
0.1 to 1	0.1 to 1	285 to 288	NC(/C=C(/F)P(=O)(O)O)CCc1ccc(Sc2cccc(OCc3ccccc3)c2)cc1Cl (stereo not shown) [Example 253, (Z)-3-amino-5-[4-(3-benzyloxyphenylthio)-2-chlorophenyl]-1-fluoro-1-pentenylphosphonic acid]	
0.01 to 0.1	≥ 1	98 to 101	Cl.NC(CO)(CCCc1ccc(Sc2cccc(OCc3ccccc3)c2)cc1Cl)CP(=O)(O)O (stereo not shown) [Example 286, 2-amino-5-[4-(3-benzyloxyphenylthio)-2-chlorophenyl]-2-hydroxymethylpentylphosphonate hydrochloride]	
0.1 to 1	≥ 1	243 to 245	CC(N)(/C=C/P(=O)(O)O)CCCc1ccc(Sc2cccc(OCc3ccccc3)c2)cc1Cl (racemic) [Example 261, 3-amino-6-[4-(3-benzyloxyphenylthio)-2-chlorophenyl]-3-methyl-1-hexenylphosphonic acid]	
0.1 to 1	≥ 1		CC(N)(CCc1ccc(Sc2cccc(OCc3ccccc3)c2)cc1Cl)COP(=O)(O)O (single isomer, unassigned; (-)) [Example 250, (−)-2-amino-4-[4-(3-benzyloxyphenylthio)-2-chlorophenyl]-2-methylbutylphosphonate monoester]	
0.01 to 0.1	0.1 to 1	200 to 203	CC(N)(CCCc1ccc(Sc2cccc(OCc3ccccc3)c2)cc1Cl)COP(=O)(O)O (single isomer, unassigned; (-)) [Example 240, (−)-2-amino-5-[4-(3-benzyloxyphenylthio)-2-chlorophenyl]-2-methylpentylphosphonate monoester]	
0.01 to 0.1	≥ 1	288 to 290	NC(/C=C(\F)P(=O)(O)O)CCc1ccc(Sc2cccc(OCc3ccccc3)c2)cc1Cl (stereo not shown) [Example 254, (E)-3-amino-5-[4-(3-benzyloxyphenylthio)-2-chlorophenyl]-1-fluoro-1-pentenylphosphonic acid]	
